Data on 13 compounds can be found in patent publication EP0560983B1, “New DNA sequence” (priority 1991, dated 1993).

Molecules are shown by their SMILES.

T1 sequence (P22637 46-552): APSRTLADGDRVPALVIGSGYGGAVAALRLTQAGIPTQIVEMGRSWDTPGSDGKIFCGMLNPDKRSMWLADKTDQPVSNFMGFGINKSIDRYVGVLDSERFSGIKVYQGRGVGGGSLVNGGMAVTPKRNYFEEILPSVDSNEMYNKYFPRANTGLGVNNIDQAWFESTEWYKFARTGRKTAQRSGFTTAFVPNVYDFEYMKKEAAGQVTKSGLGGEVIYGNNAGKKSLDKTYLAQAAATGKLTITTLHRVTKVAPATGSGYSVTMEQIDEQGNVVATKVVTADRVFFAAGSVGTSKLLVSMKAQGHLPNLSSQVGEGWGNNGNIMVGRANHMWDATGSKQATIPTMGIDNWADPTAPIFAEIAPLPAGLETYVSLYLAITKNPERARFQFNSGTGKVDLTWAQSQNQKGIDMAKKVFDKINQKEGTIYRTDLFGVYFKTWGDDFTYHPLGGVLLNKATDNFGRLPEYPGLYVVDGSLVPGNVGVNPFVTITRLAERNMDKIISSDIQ

The first assay concerns the target T1, cholesterol oxidase I (Brevibacterium sterolicum, UniProt P22637).
T1 construct: host or cells: Brevibacterium sterolicum ATCC 21387 (origin of the enzyme; how it was prepared is not described)
In words: Substrate specificity (relative activity on each substrate). It counts as biochemical, Brevibacterium sterolicum ATCC 21387. The settings on record: activity of cholesterol oxidase I on each substrate; cholesterol = 100. The protocol: (§1) The working pH range was determined by assaying the activity at each pH (phosphate buffer, Tris-HCl buffer, sodium acetate buffer) after the reaction at 37°C for 5 minutes. […] The pH range is determined by treating the enzyme at 50°C for 60 minutes at each pH (phosphate buffer, Tris-HCl buffer, sodium acetate buffer) and then assaying the residual activity. Method for determination of titer The amount of enzyme which catalyzes the reaction of decomposing 1 µmole of cholesterol at 37°C for one minute in the presence of oxygen is defined as one unit. The titer is determined as follows. With shaking, the enzyme acts on cholesterol and 4-aminoantipyrine and phenol are reacted with the formed hydrogen peroxide in the presence of peroxidase to form quinoneimine pigment. Absorption of the thus formed quinoneimine pigment in the visible region is measured to determine the amount of hydrogen peroxide generated. Thus, the titer of the enzyme is determined. Hereafter specific activity is defined as activity per 1 mg of protein (unit/mg). […] The mixture is agitated. After maintaining at 37°C for 3 mintues, 0.2 mℓ of an enzyme solution is added to the mixture. With shaking, the reaction is carried out at 37°C for 5 to 10 minutes. Then, absorbance is measured at 500 nm (OD 500 nm). • (c) Calculation of titer One unit of cholesterol oxidase II corresponds to an enzyme activity which decomposes 1 µmole of cholesterol at 37°C for 1 minute. […] Optimum temperature The optimum temperature at a pH of 6.6 for 3 minutes of the reaction time was examined. […] After heat treatment at pH of 7.0 for 60 minutes in 0.05 M phosphate buffer, the residual activity was determined. […] Reaction rates of the two enzymes were measured in various concentrations of cholesterol. […] Michealis' constant was determined from the Line weaver-Burk plot [refer to J. Am. […] Determination of the amino acid sequence and nucleotide sequence of cholesterol oxidase II Cholesterol oxidase II may be divided into 2 subunits, using reverse phase high performance liquid chromatography. Each subunit is digested with a protease, for example trypsin, and the digested subunit is further fractionated using high performance liquid chromatography, to obtain protease-digested fragments. The amino acid sequence of each digested fragment may be analyzed according to the conventional method, with the amino acid sequencer.
With `C[C@]12CC[C@@H](O)C[C@@H]1CC[C@@H]1[C@@H]2CC[C@]2(C)C(=O)CC[C@@H]12` [Androsterone], the “Relative Activity (%)” value is 0%.
Consider `CCCCC/C=C\C/C=C\CCCCCCCC(=O)O[C@H]1CC[C@@]2(C)C(=CC[C@H]3[C@@H]4CC[C@H]([C@H](C)CCCC(C)C)[C@@]4(C)CC[C@@H]32)C1` [Cholesterol linoleate], for which the “Relative Activity (%)” value is on record as 0%.
Still for that read-out and setting: to `CC(C)CCC[C@@H](C)[C@H]1CC[C@H]2[C@@H]3CC=C4C[C@@H](O)CC[C@]4(C)[C@H]3CC[C@]12C` [Cholesterol, 5-cholesten-3-β-ol] belongs 100%; to `C[C@]12CC[C@H](O)CC1=CC[C@@H]1[C@@H]2CC[C@]2(C)C(=O)CC[C@@H]12` [Dehydroisoandrosterone], 41.4%.
For `C[C@]12CC[C@@H]3c4ccc(O)cc4CC[C@H]3[C@@H]1CC[C@@H]2O` [Estradiol], the “Relative Activity (%)” value was determined as 0%.
Consider `CC(C)=CCC[C@@H](C)[C@H]1CC[C@@]2(C)C3=C(CC[C@]12C)[C@@]1(C)CC[C@H](O)C(C)(C)[C@@H]1CC3` [Lanosterol], for which the “Relative Activity (%)” value is given as 0%.
Same read-out and setting: to `CC(=O)[C@H]1CC[C@H]2[C@@H]3CC=C4C[C@@H](O)CC[C@]4(C)[C@H]3CC[C@]12C` [Pregnenolone] belongs 22.4%; to `CC[C@H](/C=C/[C@@H](C)[C@H]1CC[C@H]2[C@@H]3CC=C4C[C@@H](O)CC[C@]4(C)[C@H]3CC[C@]12C)C(C)C` [Stigmasterol], 10.0%; to `C=C1CC[C@H](O)C/C1=C/C=C1\CCC[C@]2(C)[C@@H]([C@H](C)CCCC(C)C)CC[C@@H]12` [Vitamin D3], 0%.
The same measure, in the same setting: then `CC[C@H](CC[C@@H](C)[C@H]1CC[C@H]2[C@@H]3CC=C4C[C@@H](O)CC[C@]4(C)[C@H]3CC[C@]12C)C(C)C` [β-Sitosterol], with 19.7%.

In a further assay the test system is cholesterol oxidase II. The description is as above. It counts as biochemical, Brevibacterium sterolicum ATCC 21387. The following applies: activity of cholesterol oxidase II on each substrate; cholesterol = 100. The protocol:
as §1
`C[C@]12CC[C@@H](O)C[C@@H]1CC[C@@H]1[C@@H]2CC[C@]2(C)C(=O)CC[C@@H]12` [Androsterone]: the “Relative Activity (%)” value is reported as 0%.
For the compound `CCCCC/C=C\C/C=C\CCCCCCCC(=O)O[C@H]1CC[C@@]2(C)C(=CC[C@H]3[C@@H]4CC[C@H]([C@H](C)CCCC(C)C)[C@@]4(C)CC[C@@H]32)C1` [Cholesterol linoleate], the “Relative Activity (%)” value is 0%.
As for `CC(C)CCC[C@@H](C)[C@H]1CC[C@H]2[C@@H]3CC=C4C[C@@H](O)CC[C@]4(C)[C@H]3CC[C@]12C` [Cholesterol, 5-cholesten-3-β-ol], the “Relative Activity (%)” value was 100%.
Still for that read-out and setting: to `C[C@]12CC[C@H](O)CC1=CC[C@@H]1[C@@H]2CC[C@]2(C)C(=O)CC[C@@H]12` [Dehydroisoandrosterone] belongs 13.0%; to `CC(C)=CCC[C@@H](C)[C@H]1CC[C@@]2(C)C3=C(CC[C@]12C)[C@@]1(C)CC[C@H](O)C(C)(C)[C@@H]1CC3` [Lanosterol], 0%.
The same measure, in the same setting: to `CC(=O)[C@H]1CC[C@H]2[C@@H]3CC=C4C[C@@H](O)CC[C@]4(C)[C@H]3CC[C@]12C` [Pregnenolone] belongs 32.9%; to `CC[C@H](/C=C/[C@@H](C)[C@H]1CC[C@H]2[C@@H]3CC=C4C[C@@H](O)CC[C@]4(C)[C@H]3CC[C@]12C)C(C)C` [Stigmasterol], 64.4%; to `C=C1CC[C@H](O)C/C1=C/C=C1\CCC[C@]2(C)[C@@H]([C@H](C)CCCC(C)C)CC[C@@H]12` [Vitamin D3], 0%.
On to `CC[C@H](CC[C@@H](C)[C@H]1CC[C@H]2[C@@H]3CC=C4C[C@@H](O)CC[C@]4(C)[C@H]3CC[C@]12C)C(C)C` [β-Sitosterol], for which the “Relative Activity (%)” value was determined as 82.0%.

Staying with this assay, now noted: whether cholesterol oxidase II acts on the substrate, in words.
On to `C[C@]12CC[C@@H](O)C[C@@H]1CC[C@@H]1[C@@H]2CC[C@]2(C)C(=O)CC[C@@H]12` [Androsterone], for which the Substrate specificity result is recorded as “does not act on”.
The same measure, in the same setting: to `CCCCC/C=C\C/C=C\CCCCCCCC(=O)O[C@H]1CC[C@@]2(C)C(=CC[C@H]3[C@@H]4CC[C@H]([C@H](C)CCCC(C)C)[C@@]4(C)CC[C@@H]32)C1` [Cholesterol linoleate] belongs “does not act on”; to `CC(C)CCC[C@@H](C)[C@H]1CC[C@H]2[C@@H]3CC=C4C[C@@H](O)CC[C@]4(C)[C@H]3CC[C@]12C` [Cholesterol, 5-cholesten-3-β-ol], “acts on”; to `C[C@]12CC[C@H](O)CC1=CC[C@@H]1[C@@H]2CC[C@]2(C)C(=O)CC[C@@H]12` [Dehydroisoandrosterone], “acts on”.
For `CC(C)=CCC[C@@H](C)[C@H]1CC[C@@]2(C)C3=C(CC[C@]12C)[C@@]1(C)CC[C@H](O)C(C)(C)[C@@H]1CC3` [Lanosterol], the Substrate specificity result is “does not act on”.
Same read-out and setting: to `CC(=O)[C@H]1CC[C@H]2[C@@H]3CC=C4C[C@@H](O)CC[C@]4(C)[C@H]3CC[C@]12C` [Pregnenolone] belongs “acts on”.
For the compound `CC[C@H](/C=C/[C@@H](C)[C@H]1CC[C@H]2[C@@H]3CC=C4C[C@@H](O)CC[C@]4(C)[C@H]3CC[C@]12C)C(C)C` [Stigmasterol], the Substrate specificity result is “acts on”.
The same measure, in the same setting: then `C=C1CC[C@H](O)C/C1=C/C=C1\CCC[C@]2(C)[C@@H]([C@H](C)CCCC(C)C)CC[C@@H]12` [Vitamin D3], with “does not act on”; and `CC[C@H](CC[C@@H](C)[C@H]1CC[C@H]2[C@@H]3CC=C4C[C@@H](O)CC[C@]4(C)[C@H]3CC[C@]12C)C(C)C` [β-Sitosterol], with “acts on”.

A further assay addresses T1, cholesterol oxidase I. In words: Influence of inhibitor on enzyme activity. It counts as biochemical, Brevibacterium sterolicum ATCC 21387. The following applies: inhibitor at 1 mM, activity in the absence of the inhibitor = 100. The text has this: (§2) (3) Working pH for activity: The working pH of cholesterol oxidase II is in a range of 5.0 to 7.5, whereas that of cholesterol oxidase I is in a range of 6.0 to 7.5. […]
(§3) (d) Based on the amount of hydrogen peroxide formed, the amount of oxygen consumed and identification of the reaction product as described in (a), (b) and (c), it is recognized that the enzyme of the present invention acts on specifically cholesterol, that cholesterol was oxidized into hydrogen peroxide and 4-cholesten-3-one; that is, this enzyme has a cholesterol oxidase activity. [drawing 2] wherein R represents [drawing 3] • II. Working pH range and stable pH range The working pH for the activity is in a range of 5.0 to 7.5. The working pH range was determined by assaying the activity at each pH (phosphate buffer, Tris-HCl buffer, sodium acetate buffer) after the reaction at 37°C for 5 minutes. […] The pH range is determined by treating the enzyme at 50°C for 60 minutes at each pH (phosphate buffer, Tris-HCl buffer, sodium acetate buffer) and then assaying the residual activity. Method for determination of titer The amount of enzyme which catalyzes the reaction of decomposing 1 µmole of cholesterol at 37°C for one minute in the presence of oxygen is defined as one unit. The titer is determined as follows. With shaking, the enzyme acts on cholesterol and 4-aminoantipyrine and phenol are reacted with the formed hydrogen peroxide in the presence of peroxidase to form quinoneimine pigment. Absorption of the thus formed quinoneimine pigment in the visible region is measured to determine the amount of hydrogen peroxide generated. Thus, the titer of the enzyme is determined. Hereafter specific activity is defined as activity per 1 mg of protein (unit/mg). Furthermore, an amount of enzyme protein is determined by absorbance at 280 nm (1 mg/mℓ when absorbance is 1). • (a) Principle The enzyme activity is determined by reacting hydrogen peroxide generated by the enzyme with 4-aminoantipyrine and phenol in the presence of peroxidase and quantitatively determining the formed quinoneimine pigment. The reaction is shown by the following equations (1) and (2). [drawing 4] wherein R represents [drawing 5] [drawing 6] • (b) Procedure In a test tube, there are charged 1.0 ml of 3 mM cholesterol solution (which is prepared by adding 6 mℓ of 50 mM cholesterol ethanol solution to 94 mℓ of 1.05% Triton X-100 solution with stirring, heating the mixture for 10 minutes on a water bath, cooling the mixture in water, adding distilled water to the mixture until the total volume is 100 mℓ; and is not allowed to be used 30 minutes or longer after preparation), 0.3 mℓ of 50 mM sodium bilate solution, 0.3 mℓ of 0.5 mM potassium-sodium phosphate buffer (pH 6.6), 0.5 mℓ of 42 mM phenol, 0.5 mℓ of 2.4 mM 4-aminoantipyrine and 0.2 mℓ of 115 units/mℓ horseradish-derived peroxidase. The mixture is agitated. After maintaining at 37°C for 3 mintues, 0.2 mℓ of an enzyme solution is added to the mixture. With shaking, the reaction is carried out at 37°C for 5 to 10 minutes. Then, absorbance is measured at 500 nm (OD 500 nm). • (c) Calculation of titer One unit of cholesterol oxidase II corresponds to an enzyme activity which decomposes 1 µmole of cholesterol at 37°C for 1 minute. On the other hand, it is reported that absorption coefficient of 1 mM quinoneimine is 5.33 [Clinical Chemistry, 20, 470 (1974)]. […]
Turning to `O=[N+]([O-])[O-].[Ag+]` [AgNO3, silver nitrate], the “Relative Activity (%)” value was found to be 0%.

The subject of a further assay is cholesterol oxidase II. In words: Influence of inhibitor on enzyme activity. The settings on record: cholesterol oxidase II; inhibitor at 1 mM; activity in the absence of the inhibitor = 100. It counts as biochemical, Brevibacterium sterolicum ATCC 21387.
Excerpt: as §2, §3
On to `O=[N+]([O-])[O-].[Ag+]` [AgNO3, silver nitrate], for which the “Relative Activity (%)” value is 1.0%.
With `Oc1cccc2cccnc12` [o-Hydroxyquinoline], the “Relative Activity (%)” value is listed as 91.3%.
Same read-out and setting: to `O=S(=O)(O)c1cc[c]([Hg][Cl])cc1` [p-Chloromercury benzenesulfonate] belongs 87.0%.

Still in this assay, the particulars now being: whether cholesterol oxidase II is inhibited, in words.
As for `O=[N+]([O-])[O-].[Ag+]` [AgNO3, silver nitrate], the Inhibition result is recorded as “inhibited”.
On the same count and under the same terms, then `Oc1cccc2cccnc12` [o-Hydroxyquinoline], with “inhibited”; and `O=S(=O)(O)c1cc[c]([Hg][Cl])cc1` [p-Chloromercury benzenesulfonate], with “inhibited”.
